Values of other authors in US6555530B1, “Use of estrogens and delta-gonadien-21-Ol-3,20-diones for treating insulin dependent and non-insulin dependent diabetes” (Novo Nordisk A/S, priority 1999, dated 2003).

Assays:
[1] = test system: streptozotocin diabetic rats; conditions: implanted testosterone
[2] = test system: intact or ovarectomized female rats; conditions: correlated to morphological changes in muscle

For `C[C@]12CC[C@H]3[C@@H](CCC4=CC(=O)CC[C@@]43C)[C@@H]1CC[C@@H]2O` [Testosterone], the “glycemic control by residual insulin” value [1] is given as “antagonized the ability of residual insulin to maintain glycemic control” and the insulin resistance [2] is given as “marked insulin resistance”.
